SMILES strings stand for the structures.

The Kb is the equilibrium dissociation constant of an antagonist, usually derived from a functional assay. High values mean a less potent antagonist, low ones a more potent antagonist.

Test [1] has as its target T1, human prostanoid DP1 receptor (Homo sapiens, UniProt Q13258).
T1 construct: expressed in transfected cells
T1 sequence (Q13258 1-359): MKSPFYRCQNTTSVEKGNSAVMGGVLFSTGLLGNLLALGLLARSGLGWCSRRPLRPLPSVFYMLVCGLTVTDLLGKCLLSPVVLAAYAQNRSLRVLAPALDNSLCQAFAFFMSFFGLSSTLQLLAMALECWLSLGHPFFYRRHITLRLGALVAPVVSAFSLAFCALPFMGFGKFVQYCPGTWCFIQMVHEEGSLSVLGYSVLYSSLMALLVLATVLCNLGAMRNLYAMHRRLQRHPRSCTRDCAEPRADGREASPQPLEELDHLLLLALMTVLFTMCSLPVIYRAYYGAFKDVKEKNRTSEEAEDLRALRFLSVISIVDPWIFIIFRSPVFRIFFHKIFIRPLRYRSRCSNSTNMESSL
Put plainly: FLIPR Ca2+ signaling antagonist assay, DP1 receptor stable cell line. In kind it is cell-based. As to conditions: HEK-293 EBNA stable cells with chimeric Gqs, standard agonist BW 245C; NA = inactive (no antagonism or Kb≧10,000 nM). The method, then:
(§1) The above compounds were tested for PG antagonist activity as follows using human recombinant prostanoid receptor (DP1, EP1-4, FP, IP and TP) stable cell lines:
(§2) In order to measure the response of Gs and Gi coupled prostanoid receptors as a Ca^2+ signal, chimeric G protein cDNAs were used. Stable cell lines over-expressing human prostanoid DP1, EP1-4, FP, IP, and TP receptors were established as follows:
(§3) Briefly, human prostanoid DP1, EP2, and EP4 receptor cDNAs were co-transfected with chimeric Gqs cDNA containing a haemagglutanin (HA) epitope; human prostanoid EP3 receptors were co-transfected with chimeric Gqi-HA; human EP1, FP, IP, and TP receptor cDNAs were expressed with no exogenous G-proteins. Gqs and Gqi chimeric cDNAs (Molecular Devices, Sunnyvale, Calif., U.S.A.), as well as cDNAs of prostanoid receptors, were cloned into a pCEP4 vector with a hygromycin B selection marker. Transfection into HEK-293 EBNA (Epstein-Barr virus nuclear antigen) cells was achieved by the FuGENE 6 transfection Reagent (Roche Applied Science, Indianapolis, Ind., USA). Stable transfectants were selected according to hygromycin resistance. Because Gqs and Gqi contained an HA epitope, G-protein expression was detected by Western blotting analysis using anti-mouse HA monoclonal antibody and horseradish peroxidase (HRP)-conjugated secondary antibody, while functional expression of prostanoid receptors was detected by FLIPR screening (Matias et al., 2004). These stable cell lines were validated using previously published antagonists at 10 μM against serial dilutions of standard agonists by FLIPR functional assays for Ca^2+ Signaling (as described below).
Ca^2+ signaling studies were performed using a FLIPR TETRA system (Molecular Devices, Sunnyvale, Calif., USA) in the 384-format. This is a high-throughput instrument for cell-based assays to monitor Ca^2+ signaling associated with GPCRs and ion channels. Cells were seeded at a density of 5×10^4 cells/well in BioCoat poly-D-lysine coated, black wall, clear bottom 384-well plates (BD Biosciences, Franklin lakes, NJ, USA) and allowed to attach overnight in an incubator at 37° C. The cells were then washed twice with HBSS-HEPES buffer (Hanks' balanced salt solution without bicarbonate and phenol red, 20 mM HEPES, pH 7.4) using an ELx405 Select CW Microplate Washer (BioTek, Winooski, Vt., USA). After 60 min of dye-loading in the dark using the Ca^2+-sensitive dye Fluo-4AM (Invitrogen, Carlsbad, Calif., USA), at a final concentration of 2×10^−6M, the plates were washed 4 times with HBSS-HEPES buffer to remove excess dye and leaving 50 μl of buffer in each well. The plates were then placed in the FLIPR TETRA instrument and allowed to equilibrate at 37° C. AGN-211377 was added in a 25 μl volume to each well to give final concentrations of 0.1 μM, 0.3 μM, 1 μM, 3 μM, 10 μM, and 30 μM; or 0.067 μM, 0.1 μM, 0.2 μM, 0.3 μM, 0.67 μM, and 1 μM for cells over-expressing TP receptors. After 4.5 minutes, a 7-point serial dilution of the standard agonist for the corresponding receptor, in a 25 μl volume was injected at the final concentrations from 10^−11M to 10^−5M in 10-fold serial dilution increments for cells expressing human recombinant DP1, EP1, EP2, EP3, EP4, FP, and IP receptors. The dose range for the standard agonist for human recombinant TP receptors was from 10^−12M to 10^−6M. HBSS-HEPES buffer was used as the negative control for the standard agonists. Cells were excited with LED (light emitting diode) excitation at 470-495 nm and emission was measured through an emission filter at 515-575 nm. Assay plates were read for 3.5 minutes using the FLIPR^TETRA. The peak increase in fluorescence intensity was recorded for each well. On each plate, negative controls, dose response of positive controls, and co-treatments of antagonist-agonist for each dose were in triplicates. Standard agonists were as follows: DP=BW 245C, EP1-EP4=PGE2, FP=17-phenyl-PGF2α, IP=Cicaprost, and TP=U-46619. […]

In test [2] the target is T2, human prostanoid EP3 receptor (Homo sapiens, UniProt P43115).
T2 construct: expressed in transfected cells
T2 sequence (P43115 1-390): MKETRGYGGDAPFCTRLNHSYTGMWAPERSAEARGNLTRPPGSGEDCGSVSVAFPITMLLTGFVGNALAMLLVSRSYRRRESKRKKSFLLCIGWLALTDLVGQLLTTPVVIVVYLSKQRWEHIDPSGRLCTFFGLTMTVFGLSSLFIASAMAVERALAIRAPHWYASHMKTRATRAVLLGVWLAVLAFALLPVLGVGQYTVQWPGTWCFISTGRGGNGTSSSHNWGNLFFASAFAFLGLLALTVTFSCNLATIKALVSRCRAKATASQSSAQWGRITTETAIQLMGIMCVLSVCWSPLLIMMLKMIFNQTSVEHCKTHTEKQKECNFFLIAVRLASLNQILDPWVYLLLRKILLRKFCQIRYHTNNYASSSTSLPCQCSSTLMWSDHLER
Put plainly: FLIPR Ca2+ signaling antagonist assay, EP3 receptor stable cell line. The following applies: HEK-293 EBNA stable cells with chimeric Gqi, standard agonist PGE2; NA = inactive (no antagonism or Kb≧10,000 nM). The test is classed as cell-based. How it is done:
as §1, §2, §3
Ca^2+ signaling studies were performed using a FLIPR TETRA system (Molecular Devices, Sunnyvale, Calif., USA) in the 384-format. […] Cells were excited with LED (light emitting diode) excitation at 470-495 nm and emission was measured through an emission filter at 515-575 nm. Assay plates were read for 3.5 minutes using the FLIPR^TETRA. The peak increase in fluorescence intensity was recorded for each well. […]

On to `Cc1cc(CCC(=O)NS(=O)(=O)C(F)(F)F)nn1Cc1cc(Cl)ccc1OCc1ccc(Cl)cc1` [Example 1, N-(3-{1-[5-Chloro-2-(4-Chloro-Benzyloxy)-Benzyl]-5-Methyl-1H-Pyrazol-3-yl}-Propionyl)-C,C,C-Trifluoromethanesulfonamide], for which the Kb in test [1] amounted to 280 nM; in test [2], 1400 nM.
The compound `CCC(CC)COc1ccc(Br)cc1Cn1nc(CCC(=O)O)cc1C` [Example 3, 3-{1-[5-Bromo-2-(2-ethyl-butoxy)-benzyl]-5-methyl-1H-pyrazol-3-yl}-propionic acid] registered an antagonist equilibrium constant (Kb) in test [1] of 140 nM.
Regarding `CCC(CC)COc1ccc(Cl)cc1Cn1nc(CCC(=O)O)cc1C` [Example 3a, 3-{1-[5-Chloro-2-(2-ethyl-butoxy)-benzyl]-5-methyl-1H-pyrazol-3-yl}-propionic acid], the Kb came to 220 nM in test [1] and 7100 nM in test [2].
In the case of `Cc1cc(CCC(=O)O)nn1Cc1cc(Br)ccc1OCC1CCCC1` [Example 4, 3-[1-(5-Bromo-2-cyclopentylmethoxybenzyl)-5-methyl-1H-pyrazol-3-yl]-propionic acid], the Kb in test [1] was determined as 240 nM; in test [2], 7800 nM.

Source of the values: patent publication US20140121258A1, “COMPOUNDS ACT AT MULTIPLE PROSTAGLANDIN RECEPTORS GIVING A GENERAL ANTI-INFLAMMATORY RESPONSE” (ALLERGAN, INC., priority 2010, published 2014).
